Data: patent publication US20100143459A1, “PHARMACEUTICAL DOSAGE FORM FOR ORAL ADMINISTRATION OF TYROSINE KINASE INHIBITOR” (ABBOTT GMBH & CO. KG, priority 2006, published 2010)

Assay: Pharmacokinetics in humans after a 10 mg tablet under fasting conditions
Format: in vivo
Settings: human patients, single 10 mg oral dose, mean±SD
Description: Tablets containing a 10 mg dose of ABT-869 ethanolate, as prepared above, were administered to 11 patients in the morning with 240 mL of water under fasting conditions (defined as no food or drink consumption except water and concomitant medications for 2 hours prior to dosing). Following dosing, 4-mL blood samples were collected for pharmacokinetic analyses at the following times: 0 (pre-dose), 1, 3, 4, 6, 8, 24 and 48 hours. These samples were analyzed for ABT-869 plasma concentrations using Liquid Chromatography/Tandem Mass Spectrometry (LCMS/MS). The lower limit of quantification (LLOQ) for the assay was 1.1 ng/mL.
Pharmacokinetic parameters including the maximum observed plasma concentration (Cmax), time to Cmax (Tmax), the area under the plasma concentration-time curve (AUC) from 0 to time of the last measurable concentration (AUC0-48) and AUC from 0 to infinite time (AUCoo) were determined by non-compartmental methods using WinNonlin Professional version 5.2 software.

AUC0-48 per mg of dose: about 0.40±0.10 μg·h/mL/mg | AUCoo per mg of dose: about 0.55±0.17 μg·h/mL/mg | Cmax per mg of dose: about 0.023±0.004 μg/mL/mg | Tmax (plasma): ~2.8 h
SMILES: Cc1ccc(F)c(NC(=O)Nc2ccc(-c3cccc4[nH]nc(N)c34)cc2)c1 [ABT 869, N-[4-(3-amino-1H-indazol-4-yl)phenyl]-N′-(2-fluoro-5-methylphenyl)-urea]
